The values below come from US9340569B2, “Methods and compositions for inhibiting clostridium difficile spore germination and outgrowth” (priority 2008, dated 2016).

In data set [1] the test system is C. difficile spores. In words: Inhibition of taurocholate-induced C. difficile spore germination, Ki from Lineweaver-Burk plot. The settings on record: for Inhibits Germination?: BHIS with 2-50 mM taurocholate plus inhibitor, OD600; for Ki: binding constant of inhibitor for the spore, competition with taurocholate. It is filed as cell-based, Clostridium difficile.

Data set [2] relates to vegetative C. difficile. In kind it is cell-based, Clostridium difficile.
The test system of data set [3] is C. perfringens SM101. In kind it is cell-based, Clostridium perfringens.
Data set [4] deals with C. difficile spores. In kind it is cell-based, Clostridium difficile.
Data set [5] has as its system C. difficile spores. In kind it is cell-based, Clostridium difficile. This is another data set of the same source.
Data set [6] relates to C. difficile spores.
The conditions of data set [7]: rat, in vivo; cited from earlier work.
For data set [8] the following is noted: in vivo; cited from earlier work.

Structures are written as SMILES. “Also recorded” adds a separate entry of the source. Where a name gives a salt, the structure may show the parent alone. Read-outs that look alike come from different tables or passages of the source.

As for `COC(=O)CC[C@@H](C)[C@H]1CC[C@H]2[C@@H]3C[C@@H](O)[C@@H]4C[C@H](O)CC[C@]4(C)[C@H]3CC[C@]12C` [5β-cholanic acid 3α,6β diol methyl ester], in data set [1], the “Inhibits Germination?” value is reported as “Yes” and the Ki is 48 µM.
As to `COC(=O)CC[C@@H](C)[C@H]1CC[C@H]2[C@@H]3[C@H](O)C[C@@H]4C[C@H](O)CC[C@]4(C)[C@H]3CC[C@]12C` [5β-cholanic acid 3α,7α diol methyl ester, 5β-cholanic acid-3α,7α-diol methyl ester], in data set [1], the “Inhibits Germination?” value is listed as “Yes” and the Ki was 22 µM.
Turning to `CC(=O)O[C@@H]1CC[C@@]2(C)[C@H](CC[C@@H]3[C@@H]2CC[C@]2(C)[C@@H]([C@H](C)CCC(=O)O)CC[C@@H]32)C1` [5β-cholanic acid 3α-ol-acetate], the “Inhibits Germination?” value in data set [1] was “No”.
As for `COC(=O)CC[C@@H](C)[C@H]1CC[C@H]2[C@@H]3[C@H](O)C[C@@H]4C[C@H](OC(C)=O)CC[C@]4(C)[C@H]3CC[C@]12C` [5β-cholanic acid-3α,7α-diol 3-acetate methyl ester], in data set [1], the “Inhibits Germination?” value is recorded as “Yes” and the affinity, expressed as Ki, was 40 µM.
With `COC(=O)CC[C@@H](C)[C@H]1CC[C@H]2[C@@H]3[C@H](OC(C)=O)C[C@@H]4C[C@H](OC(C)=O)CC[C@]4(C)[C@H]3CC[C@]12C` [5β-cholanic acid-3α,7α-diol diacetate methyl ester], in data set [1], the “affinity for C. difficile spores relative to chenodeoxycholate” value is reported as 7-8 times, the “potency as inhibitor of spore germination relative to chenodeoxycholate” value is “approximately ten times more potent”, the “Inhibits Germination?” value was “Yes” and the inhibition constant (Ki) turned out to be 40 µM.
As for `CC(CCC(=O)O)C1CCC2C3CC(=O)C4CC(O)CCC4(C)C3CCC12C` (stereo not shown) [6-ketolithocholate], in data set [1], the “Inhibits Germination?” value is “Yes” and the Ki is 200 µM.
In the case of `C[C@H](CCC(=O)O)[C@H]1CC[C@H]2[C@@H]3[C@H](O)C[C@@H]4C[C@H](O)CC[C@]4(C)[C@H]3C[C@H](O)[C@]12C` [CA, cholate], the “growth of vegetative C. difficile” value in data set [2] is “able to grow”. Also, in data set [3], the “growth of vegetative C. perfringens” value was “able to grow, however, to wild-type levels”. Also, the “germination (decrease in optical density) in BHIS” value in data set [4] was “did not result in any significant decrease in the optical density”. The “colony formation by spores, in words” value in data set [5] is listed as “stimulated efficient colony formation”.
Turning to `C[C@H](CCC(=O)O)[C@H]1CC[C@H]2[C@@H]3[C@H](O)C[C@@H]4C[C@H](O)CC[C@]4(C)[C@H]3CC[C@]12C` [CDCA, chenodeoxycholate], in data set [2], the “growth of vegetative C. difficile” value is reported as “unable to grow; also recorded: inhibited the growth” and the “inhibition of vegetative growth of C. difficile, general statement” value is on record as “capable of inhibiting the vegetative growth”. In data set [6], the “colony formation after transient exposure, in words” value was “did not induce colony formation”; the “inhibition of colony formation in response to cholate” value was “inhibited colony formation”; the “inhibition of colony formation in response to taurocholate” value is “inhibited colony formation”. Besides, the “growth of vegetative C. perfringens” value in data set [3] was “unable to grow; also recorded: inhibited the growth”.
For `C[C@H](CCC(=O)O)[C@H]1CC[C@H]2[C@@H]3CC[C@@H]4C[C@H](O)CC[C@]4(C)[C@H]3C[C@H](O)[C@]12C` [DCA, deoxycholate], the “growth of vegetative C. difficile” value in data set [2] is recorded as “neither C. difficile nor C. perfringens grew”. Moreover, the “colony formation after transient exposure, in words” value in data set [6] is given as “indistinguishable from that of spores incubated with taurocholate”. In addition, in data set [3], the “growth of vegetative C. perfringens” value is “neither C. difficile nor C. perfringens grew”. The “germination (decrease in optical density) in BHIS” value in data set [4] is on record as “small drop in OD600 that after 60 min was not significantly more than the change in OD of spores in BHIS alone”.
Turning to `C[C@H](CCC(=O)NCC(=O)O)[C@H]1CC[C@H]2[C@@H]3[C@H](O)C[C@@H]4C[C@H](O)CC[C@]4(C)[C@H]3C[C@H](O)[C@]12C` [GA, glycocholate], in data set [2], the “growth of vegetative C. difficile” value is “able to grow”. Also, the “growth of vegetative C. perfringens” value in data set [3] (BHIS containing 0.1% bile salt) is “able to grow, however, to wild-type levels”. Also, the “germination (decrease in optical density) in BHIS” value in data set [4] is reported as “did not result in any significant decrease in the optical density”. The “colony formation by spores, in words” value in data set [5] is listed as “stimulated efficient colony formation”.
In the case of `CCN(CCS(=O)(=O)O)C(=O)CC[C@@H](C)[C@H]1CC[C@H]2[C@@H]3[C@@H](O)C[C@@H]4C[C@H](O)CC[C@]4(C)[C@H]3CC[C@]12C` [N-ethyl-tauroursodeoxycholate], the deconjugation in data set [7] is listed as 3.4+/−2.1%.
In the case of `C[C@H](CCC(=O)NCCS(=O)(=O)O)[C@H]1CC[C@H]2[C@@H]3[C@H](O)C[C@@H]4C[C@H](O)CC[C@]4(C)[C@H]3CC[C@]12C` [Taurochenodeoxycholate, 5β-cholanic acid-3α,7α-diol n-(2-sulphoethyl)-amide sodium salt], the “Inhibits Germination?” value is recorded as “neither 5β-cholanic acid 3α-ol-acetate nor taurochenodeoxycholate was observed to inhibit” in data set [1] (listed as taurochenodeoxycholate, sodium salt) and “No” in data set [1] (sodium salt).
Turning to `C[C@H](CCC(=O)O)[C@H]1CC[C@H]2[C@@H]3[C@@H](O)C[C@@H]4C[C@H](O)CC[C@]4(C)[C@H]3CC[C@]12C` [UA, ursodeoxycholate], the “inhibition of vegetative growth of C. difficile, general statement” value in data set [2] is “capable of inhibiting the vegetative growth”.
For the molecule `C[C@H](CCC(=O)N(C)CC(=O)O)[C@H]1CC[C@H]2[C@@H]3[C@H](O)C[C@@H]4C[C@H](O)CC[C@]4(C)[C@H]3C[C@H](O)[C@]12C` [cholylsarcosine], the resistance to deconjugation entry in data set [8] is “resistant to deconjugation”.
Regarding `NCC(=O)O` [glycine], in data set [4], the “cogermination in buffer (OD600)” value is “germinated in the presence of taurocholate but not in its absence”; the “germination (optical density), glycine plus taurocholate” value was “the efficiency of germination was enhanced”; the “germination (optical density), single agent” value is “a small decrease in the optical density”.
With `C[C@H](CCC(=O)NCCS(=O)(=O)O)[C@H]1CC[C@H]2[C@@H]3[C@@H](O)C[C@@H]4C[C@H](O)CC[C@]4(C)[C@H]3CC[C@]12C` [tauroursodeoxycholate], in data set [7], the deconjugation is recorded as 100%.

What is called Ki is a measure of affinity in units of concentration, obtained from inhibition or displacement. The low end stands for tighter binding, the high end for weaker binding.
